Test results taken from PubChem BioAssay AID1963422 (Molecular Pharmacology Branch, DTP, NCI, 2024).

Tested on: 463943-066-T-J2-PDC complex spheroid growth
Experiment: Anticancer human tumor 463943-066-T-J2-PDC patient-derived colon adenocarcinoma cell line growth inhibition [Asc]
Conditions: for IC50: curve of first compound; for viability, T/C: stronger effect = lower value
Method in brief: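 Complex spheroids combining tumor cells with HUVEC endothelial cells and human MSCs, at 37 degrees C, 5% CO2; agents tested alone or combined, half-log dilutions from at or near clinical Cmax, or 10 microM if Cmax unknown.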

[1] = second compound 0.00316 µM, first compound 0.0316 µM
[2] = second compound 0.00316 µM, first compound 0.1 µM
[3] = second compound 0.01 µM, first compound 0.0316 µM
[4] = second compound 0.01 µM, first compound 0.1 µM
[5] = second compound 0.0316 µM, first compound 0.0316 µM
[6] = second compound 0.0316 µM, first compound 0.1 µM
[7] = second compound 0.1 µM, first compound 0.0316 µM
[8] = second compound 0.1 µM, first compound 0.1 µM
[9] = second compound 0.316 µM, first compound 0.0316 µM
[10] = second compound 0.316 µM, first compound 0.1 µM
[11] = second compound 1 µM, first compound 0.0316 µM
[12] = second compound 1 µM, first compound 0.1 µM
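Further: compound exposure lasted 7 days.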
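Wherever viability, T/C is given: 100% = DMSO vehicle control wells.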

`Cc1nc(N2CCC3(CC2)COC(C)C3N)c(CO)nc1Sc1ccnc(N)c1Cl` (stereo unspecified) + CCN1C(C(=O)NC23CCC(C(=O)O)(CC2)CC3)C(c2cccc(Cl)c2F)C2(C(=O)Nc3cc(Cl)ccc32)C12CCCCC2 was tested, and the IC50 (second compound 0.00949 µM) was > 3 µM, the IC50 (second compound 0.03 µM) was > 3 µM and the IC50 (second compound 0.0949 µM) was > 3 µM. For the same compound, the IC50 (second compound 0.3 µM) was > 3 µM, the IC50 (second compound 0.949 µM) was > 3 µM and the IC50 (second compound 3 µM) was > 3 µM. It also gave a viability, T/C (second compound 0.00949 µM, first compound 0.00949 µM) of 96.7%, a viability, T/C (second compound 0.00949 µM, first compound 0.03 µM) of 88% and a viability, T/C (second compound 0.00949 µM, first compound 0.0949 µM) of 87%. The viability, T/C (second compound 0.00949 µM, first compound 0.3 µM) was 81.5%, the viability, T/C (second compound 0.00949 µM, first compound 0.949 µM) was 82.3% and the viability, T/C (second compound 0.00949 µM, first compound 3 µM) was 63.6%. It also gave a viability, T/C (second compound 0.03 µM, first compound 0.00949 µM) of 91%, a viability, T/C (second compound 0.03 µM, first compound 0.03 µM) of 91.3% and a viability, T/C (second compound 0.03 µM, first compound 0.0949 µM) of 81.2%. The viability, T/C (second compound 0.03 µM, first compound 0.3 µM) was 82.2%, the viability, T/C (second compound 0.03 µM, first compound 0.949 µM) was 74% and the viability, T/C (second compound 0.03 µM, first compound 3 µM) was 60%. The viability, T/C (second compound 0.0949 µM, first compound 0.00949 µM) was 90.1%, the viability, T/C (second compound 0.0949 µM, first compound 0.03 µM) was 86.8% and the viability, T/C (second compound 0.0949 µM, first compound 0.0949 µM) was 76.2%. For the same compound, the viability, T/C (second compound 0.0949 µM, first compound 0.3 µM) was 75.7%, the viability, T/C (second compound 0.0949 µM, first compound 0.949 µM) was 71.5% and the viability, T/C (second compound 0.0949 µM, first compound 3 µM) was 61.9%. It also gave a viability, T/C (second compound 0.3 µM, first compound 0.00949 µM) of 82.7%, a viability, T/C (second compound 0.3 µM, first compound 0.03 µM) of 82.5% and a viability, T/C (second compound 0.3 µM, first compound 0.0949 µM) of 82.5%. For the same compound, the viability, T/C (second compound 0.3 µM, first compound 0.3 µM) was 72.2%, the viability, T/C (second compound 0.3 µM, first compound 0.949 µM) was 64% and the viability, T/C (second compound 0.3 µM, first compound 3 µM) was 59.1%. It also gave a viability, T/C (second compound 0.949 µM, first compound 0.00949 µM) of 74.3%, a viability, T/C (second compound 0.949 µM, first compound 0.03 µM) of 72.2% and a viability, T/C (second compound 0.949 µM, first compound 0.0949 µM) of 62.7%. The viability, T/C (second compound 0.949 µM, first compound 0.3 µM) was 62.3%, the viability, T/C (second compound 0.949 µM, first compound 0.949 µM) was 60.3% and the viability, T/C (second compound 0.949 µM, first compound 3 µM) was 53.2%. For the same compound, the viability, T/C (second compound 3 µM, first compound 0.00949 µM) was 70.7%, the viability, T/C (second compound 3 µM, first compound 0.03 µM) was 64.6% and the viability, T/C (second compound 3 µM, first compound 0.0949 µM) was 64.1%. For the same compound, the viability, T/C (second compound 3 µM, first compound 0.3 µM) was 63%, the viability, T/C (second compound 3 µM, first compound 0.949 µM) was 60.6% and the viability, T/C (second compound 3 µM, first compound 3 µM) was 49.6%.

With `Cn1ncnc1[C@H]1c2n[nH]c(=O)c3cc(F)cc(c23)N[C@@H]1c1ccc(F)cc1` + CNC(C)C(=O)NC1CN(S(=O)(=O)c2cccc(S(=O)(=O)N3CCC4CCC(C(=O)NC(c5ccccc5)c5ccccc5)N4C(=O)C(NC(=O)C(C)NC)C3)c2)CCC2CCC(C(=O)NC(c3ccccc3)c3ccccc3)N2C1=O the IC50 (second compound 0.00316 µM) was > 0.1 µM, the IC50 (second compound 0.01 µM) was > 0.1 µM and the IC50 (second compound 0.0316 µM) was > 0.1 µM. For the same compound, the IC50 (second compound 0.1 µM) was > 0.1 µM, the IC50 (second compound 0.316 µM) was > 0.1 µM and the IC50 (second compound 1 µM) was > 0.1 µM. For the same compound, the viability, T/C (second compound 0.00316 µM, first compound 0.000316 µM) was 92.7%, the viability, T/C (second compound 0.00316 µM, first compound 0.001 µM) was 91.4% and the viability, T/C (second compound 0.00316 µM, first compound 0.00316 µM) was 94.3%. It also gave a viability, T/C (second compound 0.00316 µM, first compound 0.01 µM) of 94%, a viability, T/C [1] of 101% and a viability, T/C [2] of 92.4%. For the same compound, the viability, T/C (second compound 0.01 µM, first compound 0.000316 µM) was 92.4%, the viability, T/C (second compound 0.01 µM, first compound 0.001 µM) was 89.9% and the viability, T/C (second compound 0.01 µM, first compound 0.00316 µM) was 94.3%. The viability, T/C (second compound 0.01 µM, first compound 0.01 µM) was 94.8%, the viability, T/C [3] was 97.3% and the viability, T/C [4] was 87.2%. For the same compound, the viability, T/C (second compound 0.0316 µM, first compound 0.000316 µM) was 91.6%, the viability, T/C (second compound 0.0316 µM, first compound 0.001 µM) was 97.8% and the viability, T/C (second compound 0.0316 µM, first compound 0.00316 µM) was 99.2%. For the same compound, the viability, T/C (second compound 0.0316 µM, first compound 0.01 µM) was 94%, the viability, T/C [5] was 103% and the viability, T/C [6] was 85.6%. The viability, T/C (second compound 0.1 µM, first compound 0.000316 µM) was 104%, the viability, T/C (second compound 0.1 µM, first compound 0.001 µM) was 93.9% and the viability, T/C (second compound 0.1 µM, first compound 0.00316 µM) was 100%. For the same compound, the viability, T/C (second compound 0.1 µM, first compound 0.01 µM) was 91.9%, the viability, T/C [7] was 105% and the viability, T/C [8] was 93.9%. The viability, T/C (second compound 0.316 µM, first compound 0.000316 µM) was 98.3%, the viability, T/C (second compound 0.316 µM, first compound 0.001 µM) was 93% and the viability, T/C (second compound 0.316 µM, first compound 0.00316 µM) was 89.4%. For the same compound, the viability, T/C (second compound 0.316 µM, first compound 0.01 µM) was 93%, the viability, T/C [9] was 99.7% and the viability, T/C [10] was 85.4%. The viability, T/C (second compound 1 µM, first compound 0.000316 µM) was 89.9%, the viability, T/C (second compound 1 µM, first compound 0.001 µM) was 86.8% and the viability, T/C (second compound 1 µM, first compound 0.00316 µM) was 84.2%. The viability, T/C (second compound 1 µM, first compound 0.01 µM) was 87.5%, the viability, T/C [11] was 80.8% and the viability, T/C [12] was 83.2%.

`O=C(c1cc(Cc2n[nH]c(=O)c3ccccc23)ccc1F)N1CCN(C(=O)C2CC2)CC1` + CNC(C)C(=O)NC1CN(S(=O)(=O)c2cccc(S(=O)(=O)N3CCC4CCC(C(=O)NC(c5ccccc5)c5ccccc5)N4C(=O)C(NC(=O)C(C)NC)C3)c2)CCC2CCC(C(=O)NC(c3ccccc3)c3ccccc3)N2C1=O was tested, and the IC50 (second compound 0.00316 µM) was > 10 µM, the IC50 (second compound 0.01 µM) was > 10 µM and the IC50 (second compound 0.0316 µM) was > 10 µM. For the same compound, the IC50 (second compound 0.1 µM) was > 10 µM, the IC50 (second compound 0.316 µM) was > 10 µM and the IC50 (second compound 1 µM) was > 10 µM. The viability, T/C [1] was 91.4%, the viability, T/C [2] was 95.9% and the viability, T/C (second compound 0.00316 µM, first compound 0.316 µM) was 96.9%. It also gave a viability, T/C (second compound 0.00316 µM, first compound 1 µM) of 103%, a viability, T/C (second compound 0.00316 µM, first compound 3.16 µM) of 89.4% and a viability, T/C (second compound 0.00316 µM, first compound 10 µM) of 86.2%. For the same compound, the viability, T/C [3] was 94.1%, the viability, T/C [4] was 87.5% and the viability, T/C (second compound 0.01 µM, first compound 0.316 µM) was 91.9%. The viability, T/C (second compound 0.01 µM, first compound 1 µM) was 97.5%, the viability, T/C (second compound 0.01 µM, first compound 3.16 µM) was 110% and the viability, T/C (second compound 0.01 µM, first compound 10 µM) was 87.6%. The viability, T/C [5] was 98.1%, the viability, T/C [6] was 100% and the viability, T/C (second compound 0.0316 µM, first compound 0.316 µM) was 97.4%. The viability, T/C (second compound 0.0316 µM, first compound 1 µM) was 99.2%, the viability, T/C (second compound 0.0316 µM, first compound 3.16 µM) was 92.8% and the viability, T/C (second compound 0.0316 µM, first compound 10 µM) was 82.9%. The viability, T/C [7] was 106%, the viability, T/C [8] was 93.3% and the viability, T/C (second compound 0.1 µM, first compound 0.316 µM) was 90.6%. It also gave a viability, T/C (second compound 0.1 µM, first compound 1 µM) of 95.8%, a viability, T/C (second compound 0.1 µM, first compound 3.16 µM) of 91.3% and a viability, T/C (second compound 0.1 µM, first compound 10 µM) of 86.2%. The viability, T/C [9] was 90.9%, the viability, T/C [10] was 91.8% and the viability, T/C (second compound 0.316 µM, first compound 0.316 µM) was 85.1%. It also gave a viability, T/C (second compound 0.316 µM, first compound 1 µM) of 98.1%, a viability, T/C (second compound 0.316 µM, first compound 3.16 µM) of 87.2% and a viability, T/C (second compound 0.316 µM, first compound 10 µM) of 91.3%. It also gave a viability, T/C [11] of 90.5%, a viability, T/C [12] of 95% and a viability, T/C (second compound 1 µM, first compound 0.316 µM) of 84.4%. It also gave a viability, T/C (second compound 1 µM, first compound 1 µM) of 89.7%, a viability, T/C (second compound 1 µM, first compound 3.16 µM) of 85.9% and a viability, T/C (second compound 1 µM, first compound 10 µM) of 80.9%.
